According to patent US5298494A, “Monosaccharides having anti-proliferation and anti-inflammatory activity, compositions and uses thereof” (Greenwich Pharmaceuticals Incorporated, priority 1993, dated 1994):
Read-outs that look alike come from different tables or passages of the source.

What was measured:
[1] = system: T lymphocytes (normal mouse spleen cells) stimulated with ConA; test: Mouse Spleen Cell ConA Blastogenesis Assay; assay type: cell-based, mouse (C57Bl/6); conditions: for inhibition at 1 µg/mL / inhibition at 2.5 µg/mL / inhibition at 10 µg/mL / inhibition at 25 µg/mL / inhibition at 100 µg/mL / inhibition at 300 µg/mL / inhibition at 750 µg/mL / inhibition at 0.001 µg/mL / inhibition at 0.01 µg/mL / inhibition at 0.1 µg/mL: Mus musculus, T-lymphocyte, read-out: % change from control, ConA blastogenic response; for strong antiproliferative effect on ConA blastogenic response: concentration not given
[2] = system: T cell proliferation in mouse spleen cell mixed lymphocyte cultures; test: Mixed Lymphocyte Reaction (MLR) assay; assay type: cell-based, mouse (Balb/c responder, C57B1/6 stimulator); conditions: for inhibition at 3 µM / inhibition at 10 µM / inhibition at 30 µM / inhibition at 100 µM / inhibition at 300 µM: Mus musculus, Lymphocyte, read-out: % Change From Control, MLR
In short: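 Balb/c responder spleen cells (2.5×10^5) co-cultured with mitomycin C-treated C57Bl/6 stimulators (5×10^5) for 5 days at 37 C with compound dilutions of 3–300 uM or DMSO. Proliferation read by MTT (OD 570-650 nm). Allogeneic minus syngeneic means were expressed as % change from vehicle control.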

[3] = ConA 1 ug/ml, compound 2.5 ug/ml
[4] = ConA 1 ug/ml, compound 10 ug/ml
[5] = ConA 1 ug/ml, compound 25 ug/ml
[6] = ConA 1 ug/ml, compound 100 ug/ml
[7] = ConA 4 ug/ml, compound 2.5 ug/ml
[8] = ConA 4 ug/ml, compound 10 ug/ml
[9] = ConA 4 ug/ml, compound 25 ug/ml
[10] = ConA 4 ug/ml, compound 100 ug/ml
[11] = ConA 1 ug/ml, compound 300 ug/ml
[12] = ConA 1 ug/ml, compound 750 ug/ml
[13] = ConA 4 ug/ml, compound 300 ug/ml
[14] = ConA 4 ug/ml, compound 750 ug/ml
[15] = ConA 1 ug/ml, compound 0.001 ug/ml
[16] = ConA 1 ug/ml, compound 0.01 ug/ml
[17] = ConA 1 ug/ml, compound 0.1 ug/ml
[18] = ConA 4 ug/ml, compound 0.001 ug/ml
[19] = ConA 4 ug/ml, compound 0.01 ug/ml
[20] = ConA 4 ug/ml, compound 0.1 ug/ml

## CC1(C)OC2OC(C(O)COCCCc3ccccc3)C(O)C2O1 [IIIe, 1,2-O-Isopropylidene-6-O-3'-(phenylpropyl)-α-D-glucofuranose]
[1]; ConA 1 ug/ml, compound 1 ug/ml
  inhibition at 1 µg/mL: 78%
[1]; [3]
  inhibition at 2.5 µg/mL: 94%
[1]; [4]
  inhibition at 10 µg/mL: 98%
[1]; [5]
  inhibition at 25 µg/mL: 99%
[1]; [6]
  inhibition at 100 µg/mL: 99%
[1]; ConA 4 ug/ml, compound 1 ug/ml
  inhibition at 1 µg/mL: 76%
[1]; [7]
  inhibition at 2.5 µg/mL: 91%
[1]; [8]
  inhibition at 10 µg/mL: 97%
[1]; [9]
  inhibition at 25 µg/mL: 99%
[1]; [10]
  inhibition at 100 µg/mL: 100%
[1]
  strong antiproliferative effect on ConA blastogenic response: greater than -50 % of control
[2]; 3 um
  Mean O.D. Allogenic: 0.174 O.D.
  Mean O.D. Syngeneic: 0.052 O.D.
  inhibition at 3 µM: 19%
[2]; 10 um
  Mean O.D. Allogenic: 0.122 O.D.
  Mean O.D. Syngeneic: 0.081 O.D.
  inhibition at 10 µM: 73%
[2]; 30 um
  Mean O.D. Allogenic: 0.084 O.D.
  Mean O.D. Syngeneic: 0.066 O.D.
  inhibition at 30 µM: 88%
[2]; 100 um
  Mean O.D. Allogenic: 0.034 O.D.
  Mean O.D. Syngeneic: 0.024 O.D.
  inhibition at 100 µM: 93%
[2]; 300 um
  Mean O.D. Allogenic: 0.009 O.D.
  Mean O.D. Syngeneic: 0.010 O.D.
  inhibition at 300 µM: 101%

## CN1CCCC1CCNC[C@H]1OC(C)(C)O[C@@H]2[C@H]3OC(C)(C)O[C@H]3O[C@@H]21 (stereo partly shown) [IIIi]
[1]; ConA 1 ug/ml, compound 1 ug/ml
  inhibition at 1 µg/mL: -25%
[1]; [3]
  inhibition at 2.5 µg/mL: -16%
[1]; [4]
  inhibition at 10 µg/mL: -10%
[1]; [5]
  inhibition at 25 µg/mL: 23%
[1]; [6]
  inhibition at 100 µg/mL: 91%
[1]; ConA 4 ug/ml, compound 1 ug/ml
  inhibition at 1 µg/mL: 9%
[1]; [7]
  inhibition at 2.5 µg/mL: 14%
[1]; [8]
  inhibition at 10 µg/mL: 9%
[1]; [9]
  inhibition at 25 µg/mL: 50%
[1]; [10]
  inhibition at 100 µg/mL: 95%
[1]
  strong antiproliferative effect on ConA blastogenic response: greater than -50 % of control
[2]
  effect on MLR in words: strong non dose dependent inhibition of T lymphocyte proliferation
[2]; 3 um
  Mean O.D. Allogenic: 0.128 O.D.
  Mean O.D. Syngeneic: 0.090 O.D.
  inhibition at 3 µM: 15%
[2]; 10 um
  Mean O.D. Allogenic: 0.180 O.D.
  Mean O.D. Syngeneic: 0.102 O.D.
  inhibition at 10 µM: 48%
[2]; 30 um
  Mean O.D. Allogenic: 0.165 O.D.
  Mean O.D. Syngeneic: 0.078 O.D.
  inhibition at 30 µM: 42%
[2]; 100 um
  Mean O.D. Allogenic: 0.095 O.D.
  Mean O.D. Syngeneic: 0.066 O.D.
  inhibition at 100 µM: 81%
[2]; 300 um
  Mean O.D. Allogenic: 0.019 O.D.
  Mean O.D. Syngeneic: 0.030 O.D.
  inhibition at 300 µM: 107%

## CCCCCCCOCCCO[C@@H]1[C@H]2OC(C)(C)O[C@H]2O[C@@H]1[C@H](O)CO [IIg]
[1]; ConA 1 ug/ml, compound 1 ug/ml
  Blastogenic response of normal spleen cells to Con-A: 91,958 ± 15,723 cpm
  inhibition at 1 µg/mL: -27%
[1]; [4]
  Blastogenic response of normal spleen cells to Con-A: 100,734 ± 25,985 cpm
  inhibition at 10 µg/mL: -39%
[1]; [5]
  Blastogenic response of normal spleen cells to Con-A: 108,874 ± 15,534 cpm
  inhibition at 25 µg/mL: -51%
[1]; [6]
  % change from control, ConA blastogenic response: -67%
  Blastogenic response of normal spleen cells to Con-A: 23,806 ± 1,727 cpm
  inhibition at 100 µg/mL: 67%
[1]; [11]
  % change from control, ConA blastogenic response: -84%
  Blastogenic response of normal spleen cells to Con-A: 11,212 ± 15,288 cpm
  inhibition at 300 µg/mL: 84%
[1]; [12]
  % change from control, ConA blastogenic response: -82%
  Blastogenic response of normal spleen cells to Con-A: 12,807 ± 9,049 cpm
  inhibition at 750 µg/mL: 82%
[1]; ConA 4 ug/ml, compound 1 ug/ml
  Blastogenic response of normal spleen cells to Con-A: 174,764 × 10^3 cpm
  inhibition at 1 µg/mL: -80%
[1]; [8]
  Blastogenic response of normal spleen cells to Con-A: 168,131 ± 14,911 cpm
  inhibition at 10 µg/mL: -73%
[1]; [9]
  Blastogenic response of normal spleen cells to Con-A: 216,784 ± 27,862 cpm
  inhibition at 25 µg/mL: -123%
[1]; [10]
  Blastogenic response of normal spleen cells to Con-A: 31,073 ± 10,784 cpm
[1]; [13]
  % change from control, ConA blastogenic response: -91%
  Blastogenic response of normal spleen cells to Con-A: 8,268 ± 322 × 10^3 cpm
  inhibition at 300 µg/mL: 91%
[1]; [14]
  % change from control, ConA blastogenic response: -79%
  Blastogenic response of normal spleen cells to Con-A: 20,265 ± 12,455 cpm
  inhibition at 750 µg/mL: 79%
[2]; Table X, 3 ugm
  % Change From Control, MLR: -61%
[2]; Table X, 10 ugm
  % Change From Control, MLR: -15%
  Mean O.D. Allogenic: 0.197 O.D.
  Mean O.D. Syngeneic: 0.070 O.D.
[2]; Table X, 30 ugm
  % Change From Control, MLR: -36%
  Mean O.D. Allogenic: 0.171 O.D.
  Mean O.D. Syngeneic: 0.075 O.D.
[2]; Table X, 100 ugm
  % Change From Control, MLR: -101%
[2]; Table X, 300 ugm
  % Change From Control, MLR: -97%
[2]; several concentrations
  strong non-dose dependent inhibition in MLR: greater than -50 % of control

## CCCCCCCOC[C@H]1O[C@@]2(OC)COC(C)(C)O[C@H]2[C@@H]1O [Ia, methyl 1,3-O-isopropylidene-6-O-heptyl-α-D-fructofuranoside]
[1]
  effect on ConA T lymphocyte proliferation in words: dose-dependent, significant, inhibitory effect
[1]; [15]
  Blastogenic response of normal spleen cells to Con-A: 52.6 ± 3.8 × 10^-3 cpm
  inhibition at 0.001 µg/mL: 5%
[1]; [16]
  Blastogenic response of normal spleen cells to Con-A: 45.1 ± 4.9 × 10^-3 cpm
  inhibition at 0.01 µg/mL: 19%
[1]; [17]
  Blastogenic response of normal spleen cells to Con-A: 71.1 ± 4.9 × 10^-3 cpm
  inhibition at 0.1 µg/mL: -28%
[1]; ConA 1 ug/ml, compound 1 ug/ml
  Blastogenic response of normal spleen cells to Con-A: 55.7 ± 8.4 × 10^-3 cpm
  inhibition at 1 µg/mL: -1%
[1]; [3]
  Blastogenic response of normal spleen cells to Con-A: 47.2 ± 7.0 × 10^-3 cpm
  inhibition at 2.5 µg/mL: 15%
[1]; [4]
  Blastogenic response of normal spleen cells to Con-A: 26.5 ± 8.8 × 10^-3 cpm
  inhibition at 10 µg/mL: 52%
[1]; [5]
  Blastogenic response of normal spleen cells to Con-A: 1.5 ± 0.4 × 10^-3 cpm
  inhibition at 25 µg/mL: 97%
[1]; [6]
  Blastogenic response of normal spleen cells to Con-A: 0.6 ± 0.1 × 10^-3 cpm
  inhibition at 100 µg/mL: 99%
[1]; [18]
  Blastogenic response of normal spleen cells to Con-A: 68.7 ± 5.0 × 10^-3 cpm
  inhibition at 0.001 µg/mL: 19%
[1]; [19]
  Blastogenic response of normal spleen cells to Con-A: 72.8 ± 0.8 × 10^-3 cpm
  inhibition at 0.01 µg/mL: 14%
[1]; [20]
  Blastogenic response of normal spleen cells to Con-A: 88.8 ± 2.4 × 10^-3 cpm
  inhibition at 0.1 µg/mL: -5%
[1]; ConA 4 ug/ml, compound 1 ug/ml
  Blastogenic response of normal spleen cells to Con-A: 77.0 ± 4.2 × 10^-3 cpm
  inhibition at 1 µg/mL: 9%
[1]; [7]
  Blastogenic response of normal spleen cells to Con-A: 63.8 ± 2.3 × 10^-3 cpm
  inhibition at 2.5 µg/mL: 25%
[1]; [8]
  Blastogenic response of normal spleen cells to Con-A: 50.2 ± 3.4 × 10^-3 cpm
  inhibition at 10 µg/mL: 41%
[1]; [9]
  Blastogenic response of normal spleen cells to Con-A: 13.7 ± 2.0 × 10^-3 cpm
  inhibition at 25 µg/mL: 84%
[1]; [10]
  Blastogenic response of normal spleen cells to Con-A: 6.3 ± 2.2 × 10^-3 cpm
  inhibition at 100 µg/mL: 93%
[2]; 3 um
  Mean O.D. Allogenic: 0.375 O.D.
  Mean O.D. Syngeneic: 0.193 O.D.
  inhibition at 3 µM: 5%
[2]; 10 um
  Mean O.D. Allogenic: 0.361 O.D.
  Mean O.D. Syngeneic: 0.175 O.D.
  inhibition at 10 µM: 3%
[2]; 30 um
  Mean O.D. Allogenic: 0.334 O.D.
  Mean O.D. Syngeneic: 0.167 O.D.
  inhibition at 30 µM: 13%
[2]; 100 um
  Mean O.D. Allogenic: 0.429 O.D.
  Mean O.D. Syngeneic: 0.192 O.D.
  inhibition at 100 µM: -23%
[2]; 300 um
  Mean O.D. Allogenic: 0.162 O.D.
  Mean O.D. Syngeneic: 0.107 O.D.
  inhibition at 300 µM: 71%
